Experimental data as given in patent US9216181B2 (Southwest Research Institute, priority 2011, dated 2015).
Where a name gives a salt, the structure may show the parent alone. Read-outs that look alike come from different tables or passages of the source.

Legend:
BMP-2 [1] = test: Real time PCR of BMP-2 gene expression in human MSC (Cells-to-Ct); format: cell-based; conditions: BMP-2 mRNA, hMSC, 5-10 μM, 24 hours, vs untreated
Protocol: Early passage human mesenchymal stem cells (MSC) were thawed from one frozen cryo-vial and seeded into two T-75 tissue culture flasks and incubated at 37° C. for 48 hours in Alpha MEM with 10% FBS. After three days and one re-feeding, the cells were trypsinized and re-suspended in pre-warmed media at 5×10^4 cells/mL to provide 5,000 cells per well in a 96 well plate and incubated overnight at 37° C. in 5% CO2.
Each well was washed in cold PBS, lysed at room temperature for five minutes, and stop reagent added to each well to stop the lysis reaction. The final lysate was kept cold at 4° C. and used immediately as the RNA template for the reverse transcription cDNA synthesis following the TAQMAN GENE EXPRESSION CELLS TO CT KIT instructions.
The cDNA synthesis was prepared on a separate sterile 96-well PCR plate and performed on the Step One Plus Real Time PCR System instrument (Applied Biosystems) with the programming set at 37° C. for 60 minutes and an inactivation hold of 95° C. for five minutes. The final cDNA reaction was kept cold and used as the template for the TAQMAN GENE Real-Time PCR step following the recommended instructions for TAQMAN GENE EXPRESSION CELLS TO CT KIT assay. […] Template cDNA's were added separately to respective individual wells in replicate samples.
The PCR was performed on the STEPONEPLUS Real-Time System instrument (Applied Biosystems). The amplification program consisted of 1 cycle of 95° C. with 10 minute hold (hot start) and followed by 50 cycles of 95° C. with 15-second annealing hold and 1-minute 60° C. specified acquisition hold.

BMP2 = test: Quantitative PCR (TaqMan, ΔΔCt) of BMP2 in human mesenchymal stem cells; format: cell-based; conditions: for fold induction at 10 µM: Homo sapiens, Mesenchymal stem cells, read-out: q-PCR Fold increase
Protocol: (§1) Human mesenchymal stem cells (LONZA, Catalog PT2501) were maintained in Mesenchymal stem cells basal media (MSCBM CAT#PT-3238). Early passage cells were plated in triplicate at 2×10^4 cells/cm^2 using six well tissue culture plates and grown in humidified 5% CO2 at 37° C. for 24 hours. Spent media was replaced by assay media of drugs to be tested in same media as above at 10 μM final concentration. Untreated cells were used as the control group. Total RNA were prepared using either TRI Reagent (Ambion, Cat. 9738), for subsequent TaqMan gene expression qPCR of BMP2. RNA concentration and integrity was assessed by absorbance 260/280 and electrophoresis in 1% Agarose with formaldehyde loading dye. For TaqMan gene expression, cDNA was synthesized from 2 μg of total RNA using the High Capacity cDNA Reverse Transcription Kit (Applied Biosystems, Cat. 4368814). The resulting cDNA were diluted 1:100 for TaqMan and amplified by real-time quantitative PCR. Gene-specific fluorescent labeled TaqMan primers for FAM-BMP2 (Applied Biosystems, Hs00154192.m1) and TaqMan reference VIC-18S ribosomal RNA (Applied Biosystems, 4310893E) were used to target gene of interest. A cocktail of universal master mix (Applied Biosystems, 4369016) were prepared individually for both set of primers which contained Taq Polymerase, dNTPs, and buffer. Template cDNA's were added separately to respective individual wells in triplicate samples. The PCR were performed on StepOne Plus Real Time System instrument (Applied Biosystems). The amplification program consisted of 1 cycle of 95° C. with 10 minute hold (hot start) followed by 50 cycles of 95° C. with 15 second annealing hold and 1 minute 60° C. specified acquisition hold. The Ct value of endogenous reference gene (i.e. 18 s) was used to control for input RNA and then used to normalize target gene (i.e. BMP2) tested from the same cDNA sample to calculate the Δ Ct, and then calibrated to an internal reference sample. Change in gene expression was determined by the expression ΔΔCt relative method.
18 compounds were confirmed positive by the more stringent qPCR techniques. […] Included in the tables is the target or common medical use for each compounds.

BMP-2 [2] = test: BMP-2 fold change of JHU library compounds, confirmed by qPCR; format: cell-based, human; conditions: JHU library compounds; non-treated = 1.00
Text: To further verify the technique, a 2T3 mouse pre-osteoblast cell line derived from calvaria courtesy of Dr. Steve Harris, UTHSCSA, was utilized to visually screen the compounds of the BIOMOL library and JHU libraries, purchased from John Hopkins University including 2387 compounds (solution in wells). Specifically, Murine 2T3 were thawed from one frozen cryovial and re-seeded into two T-75 tissue culture flasks grown in Alpha MEM with 10% FBS, Glutamine, and Pen/Strip antibiotics. Cells were incubated in a humidified 37° C. under 5% CO2 for 48 hours or when cells reached 80% confluence. After reaching confluency, the 2T3 were trypsinized and resuspended in pre-warm growth media to a cell density of 5×10^4 cells/mL. Approximately 100 uL of cell suspension was seeded to a 96 well plate to give a final 5,000 cells per well. Plate was incubated overnight at 37° C. and spent media was aspirated and replace with 100 uL of growth media with 5-10 uM of presumptive drug compounds. A set of controls were untreated and treated with 10 uM of Lovastatin to be used as a visual reference morphological screening.
as §1, with “Total RNA were prepared using either TRI Reagent (Ambion, Cat. 9738), for subsequent TaqMan gene expression qPCR of BMP2.” left out, “Gene-specific fluorescent labeled TaqMan primers for FAM-BMP2 (Applied Biosystems, Hs00154192.m1) and TaqMan reference VIC-18S ribosomal RNA (Applied Biosystems, 4310893E) were used to target gene of interest.” left out, “The Ct value of endogenous reference gene (i.e. 18 s) was used to control for input RNA and then used to normalize target gene (i.e. BMP2) tested from the same cDNA sample to calculate the Δ Ct, and then calibrated to an internal reference sample.” left out
Included in the tables is the target or common medical use for each compounds.

[3] = BMP2 mRNA, hMSC, 10 μM, vs untreated, 18S reference, BIOMOL library (Table 2)
[4] = positive control compounds (Table 1)
[5] = BMP2 mRNA, hMSC, 10 μM, vs untreated, 18S reference, positive control compounds (Table 1)

Question: CC[C@@]1(O)C(=O)OCc2c1cc1n(c2=O)Cc2cc3cc(O)ccc3nc2-1 [10-hydroxy-camptothecin] was tested. Which “RT PCR Fold increase” value (BMP-2 [1]; BIOMOL library (Table 2)) did it give?
Answer: 30.0 fold

Question: What about the “q-PCR Fold increase” value (BMP2; [3]) of the same compound?
Answer: 3.9 fold

Question: Which “RT PCR Fold increase” value (BMP-2 [1]; BIOMOL library (Table 2)) does the source give for CN1CCc2cccc3c2[C@H]1Cc1ccc(O)c(O)c1-3 [Apomorphine r (−)] here?
Answer: 4.6 fold

Question: And the fold induction at 10 µM (BMP2; [3])?
Answer: 7.3

Question: With CC(=O)OC[C@H]1O[C@@H]([S-])[C@H](OC(C)=O)[C@@H](OC(C)=O)[C@@H]1OC(C)=O.CCP(CC)CC.[Au+] [Auranofin] as the compound, how does the “RT PCR Fold increase” value (BMP-2 [1]; BIOMOL library (Table 2)) read?
Answer: 309.8 fold

Question: And the “q-PCR Fold increase” value (BMP2; [3])?
Answer: 17.6 fold

Question: CC(C)C[C@H](NC(=O)[C@H](Cc1ccccc1)NC(=O)c1cnccn1)B(O)O [Bortezomib] was tested. Which “RT PCR Fold increase” value (BMP-2 [1]; [4]) did it give?
Answer: 15.4 fold

Question: And the fold induction at 10 µM (BMP2; [5])?
Answer: 2.4

Question: Which results are given for C=C1CC[C@H](O)C/C1=C/C=C1\CCC[C@]2(C)[C@@H]([C@H](C)CCCC(C)(C)O)CC[C@@H]12 [Calcifediol]?
Answer: RT PCR Fold increase (BMP-2 [1]; BIOMOL library (Table 2)): 6.0 fold; fold induction at 10 µM (BMP2; [3]): 3.4

Question: How did the “RT PCR Fold increase” value (BMP-2 [1]; BIOMOL library (Table 2)) turn out when CC[C@@]1(O)C(=O)OCc2c1cc1n(c2=O)Cc2cc3ccccc3nc2-1 [Camptothecin] was run?
Answer: 29.0 fold

Question: What about the fold induction at 10 µM (BMP2; [3]) of the same compound?
Answer: 4

Question: How did the “RT PCR Fold increase” value (BMP-2 [1]; [4]) turn out when COCc1c(C(C)C)nc(C(C)C)c(/C=C/[C@@H](O)C[C@@H](O)CC(=O)O)c1-c1ccc(F)cc1 [Cerivastatin] was run?
Answer: 5.3 fold

Question: And the fold induction at 10 µM (BMP2; [5])?
Answer: 11.9

Question: Which “RT PCR Fold increase” value (BMP-2 [1]; BIOMOL library (Table 2)) does the source give for N=C(N)N1CCc2ccccc2C1 [Debrisoquin sulfate] here?
Answer: 8.2 fold

Question: And the fold induction at 10 µM (BMP2; [3])?
Answer: 6.2

Question: CC(=O)O[C@@]12CO[C@@H]1C[C@H](O)[C@@]1(C)C(=O)[C@H](O)C3=C(C)[C@@H](OC(=O)[C@H](O)[C@@H](NC(=O)OC(C)(C)C)c4ccccc4)C[C@@](O)([C@@H](OC(=O)c4ccccc4)[C@H]21)C3(C)C [Docetaxil] was tested. Which “RT PCR Fold increase” value (BMP-2 [1]; [4]) did it give?
Answer: 11.0 fold

Question: And the “q-PCR Fold increase” value (BMP2; [5])?
Answer: 2.7 fold

Question: What does the source list for COC(=O)Nc1nc2ccc(Sc3ccccc3)cc2[nH]1 [Fenbendazole]?
Answer: RT PCR Fold increase (BMP-2 [1]; BIOMOL library (Table 2)): 6.6 fold; fold induction at 10 µM (BMP2; [3]): 2

Question: Which “RT PCR Fold increase” value (BMP-2 [1]; BIOMOL library (Table 2)) does the source give for COC(=O)Nc1nc2cc(C(=O)c3ccc(F)cc3)ccc2[nH]1 [Flubendazole] here?
Answer: 5.6 fold

Question: And the fold induction at 10 µM (BMP2; [3])?
Answer: 1.7

Question: And the “Fold change (BMP-2)” value (BMP-2 [2])?
Answer: 10.00 fold

Question: For CC(C)C(=O)Nc1ccc([N+](=O)[O-])c(C(F)(F)F)c1 [Flutamide], which “RT PCR Fold increase” value (BMP-2 [1]; BIOMOL library (Table 2)) is on record?
Answer: 9.7 fold

Question: And the fold induction at 10 µM (BMP2; [3])?
Answer: 1.6

Question: How did the “RT PCR Fold increase” value (BMP-2 [1]; [4]) turn out when CC(C)n1c(/C=C/C(O)CC(O)CC(=O)[O-])c(-c2ccc(F)cc2)c2ccccc21.[Na+] (centres unmarked) [Fluvastatin Na] was run?
Answer: 3.2 fold

Question: What about the “q-PCR Fold increase” value (BMP2; [5]) of the same compound?
Answer: 7.8 fold

Question: With CNCCCC12CCC(c3ccccc31)c1ccccc12 [Maprotiline] as the compound, how does the “RT PCR Fold increase” value (BMP-2 [1]; BIOMOL library (Table 2)) read?
Answer: 3.6 fold

Question: What about the fold induction at 10 µM (BMP2; [3]) of the same compound?
Answer: 2.4

Question: How did the “RT PCR Fold increase” value (BMP-2 [1]; [4]) turn out when CC[C@H](C)C(=O)O[C@H]1CCC=C2C=C[C@H](C)[C@H](CC[C@@H]3C[C@@H](O)CC(=O)O3)[C@H]21 [Mevastatin] was run?
Answer: 3.1 fold

Question: And the fold induction at 10 µM (BMP2; [5])?
Answer: 0.9

Question: Which results are given for CCCCN1C[C@H](O)[C@@H](O)[C@H](O)[C@H]1CO [Miglustat]?
Answer: RT PCR Fold increase (BMP-2 [1]; BIOMOL library (Table 2)): 4.9 fold; fold induction at 10 µM (BMP2; [3]): 6.6

Question: Which results are given for COc1cc2nc(N3CCN(C(=O)c4ccco4)CC3)nc(N)c2cc1OC [Prazosin]?
Answer: RT PCR Fold increase (BMP-2 [1]; BIOMOL library (Table 2)): 6.8 fold; fold induction at 10 µM (BMP2; [3]): 4

Question: What does the source list for COc1ccc(C[C@H](N)C(=O)N[C@H]2[C@@H](O)[C@H](n3cnc4c(N(C)C)ncnc43)O[C@@H]2CO)cc1 [Puromycin]?
Answer: RT PCR Fold increase (BMP-2 [1]; BIOMOL library (Table 2)): 122.3 fold; fold induction at 10 µM (BMP2; [3]): 54.6

Question: CC(C)=CC[C@@H](O)C1=CC(=O)c2c(O)ccc(O)c2C1=O [Shikonin] was tested. Which “RT PCR Fold increase” value (BMP-2 [1]; [4]) did it give?
Answer: 23.5 fold

Question: What about the fold induction at 10 µM (BMP2) of the same compound?
Answer: 1.5

Question: Which “RT PCR Fold increase” value (BMP-2 [1]; [4]) does the source give for CCC(C)(C)C(=O)O[C@H]1C[C@@H](C)C=C2C=C[C@H](C)[C@H](CC[C@@H]3C[C@@H](O)CC(=O)O3)[C@H]21 [Simvastatin] here?
Answer: 4.2 fold

Question: And the fold induction at 10 µM (BMP2)?
Answer: 2.3

Question: With CC(=O)O[C@H]1C(=O)[C@@]2(C)[C@H]([C@H](OC(=O)c3ccccc3)[C@]3(O)C[C@H](OC(=O)[C@H](O)[C@@H](NC(=O)c4ccccc4)c4ccccc4)C(C)=C1C3(C)C)[C@]1(OC(C)=O)CO[C@@H]1C[C@@H]2O [Taxol] as the compound, how does the “RT PCR Fold increase” value (BMP-2 [1]; [4]) read?
Answer: 3.7 fold

Question: And the fold induction at 10 µM (BMP2; [5])?
Answer: 4

Question: How did the “RT PCR Fold increase” value (BMP-2 [1]; BIOMOL library (Table 2)) turn out when CC(C)(C)c1ccc(C(O)CCCN2CCC(C(O)(c3ccccc3)c3ccccc3)CC2)cc1 (centres unmarked) [Terfenadine] was run?
Answer: 13.9 fold

Question: What about the fold induction at 10 µM (BMP2; [3]) of the same compound?
Answer: 10.4

Question: For CC[C@]1(O)C[C@@H]2CN(CCc3c([nH]c4ccccc34)[C@@](C(=O)OC)(c3cc4c(cc3OC)N(C)[C@H]3[C@@](O)(C(N)=O)[C@H](O)[C@]5(CC)C=CCN6CC[C@]43[C@@H]65)C2)C1 [Vindesine], which “RT PCR Fold increase” value (BMP-2 [1]; [4]) is on record?
Answer: 12.4 fold

Question: And the fold induction at 10 µM (BMP2; [5])?
Answer: 1.8
